Assay results reported in patent US20090075281A1, “MTBE GENES” (REGENTS OF THE UNIVERSITY OF CALIFORNIA, priority 2007, published 2009).

Assays:
M. petroleiphilum PM1 [1] = experiment: PM1 growth in mineral salts medium (MSM) on a sole carbon source; assay type: cell-based, Methylibium petroleiphilum PM1; settings: for doubling time of PM1 cells, t1/2: cells growing on the substance as sole carbon source; for concentration up to which PM1 is capable of growth: on MSM
M. petroleiphilum PM1 [2] = experiment: PM1 tolerance of MTBE on tryptic soy broth media; assay type: cell-based, Methylibium petroleiphilum PM1
[3] = used to calculate solution-phase concentration; cited from earlier work
n-alkane grown GPo 1 = settings: cited from earlier work
PM1 = experiment: MTBE degradation kinetics by PM1; assay type: cell-based, Methylibium petroleiphilum PM1

Structure (SMILES) | doubling time of PM1 cells, t1/2 (M. petroleiphilum PM1 [1]) | concentration up to which PM1 is capable of growth (M. petroleiphilum PM1 [1]) | tolerated concentration (M. petroleiphilum PM1 [2]) | dimensionless Henry's constant [3] | Ks values for MTBE (n-alkane grown GPo 1) | apparent half saturation constant for MTBE (PM1)
CCO [ethanol] | 6.1 h | up to 7.9 g/L | – | – | – | –
COC(C)(C)C [MTBE, methyl tert-butyl ether] | 15 h | up to 1000 mg/L | up to 5,000 mg/L | 0.023 | 20 to 40 mM | 88 µM
